The values that follow are results of earlier work, collected in patent US20110048980A1, “Fatty Acid Oxidation Inhibitors Treating Hyperglycemia and Related Disorders” (Symcopeia Company, priority 2007, published 2011).

Molecules are shown by their SMILES.

The conditions of series [1]: in vivo.
For series [2] the following is noted: pioglitazone added to other glucose lowering drugs, equivalent glucose-lowering.

Consider `COc1ccccc1OCC(O)CN1CCN(CC(=O)Nc2c(C)cccc2C)CC1` (stereo not shown) [Ranolazine, ranolazine], for which, in series [1], the QT interval effect entry was “causes QT interval prolongation”.
With `CCc1ccc(CCOc2ccc(CC3SC(=O)NC3=O)cc2)nc1` (stereo not shown) [pioglitazone], the “increase in risk of congestive heart failure (CHF)” value in series [2] was 2-3 fold.
Regarding `CN(CCOc1ccc(CC2SC(=O)NC2=O)cc1)c1ccccn1` (stereo not shown) [rosiglitazone], the “CHD events, relative risk” value (IGT patients, not statistically reduced, trend) is listed as 1.37. For the same compound, for the setting “pre-diabetic population”, the “increase in incidence of CHF” value is reported as 7 fold.
